Like-named read-outs stand apart in the source and are kept apart here.
Key:
Type in all cases: biochemical
[1] = biological target: T1, Human trypsin (Homo sapiens, UniProt P07477); assay: Trypsin enzyme inhibition assay; settings: for IC50: read-out: Trypsin pIC50 (converted)
T1 construct: purchased Polymun Scientific
Description: Human thrombin was purchased from Biopur. Human trypsin was purchased from Polymun Scientific. Human Factor Xa was purchased from Enzo Life Sciences. […] Fluorescence intensity was then read at ex/em 485/535 following incubation for 1 h at room temperature (thrombin and factor Xa) or 20 min (trypsin).

[2] = biological target: T2, KLK8 (Homo sapiens, UniProt O60259); assay: KLK8 enzyme inhibition assay; settings: read-out: KLK8 pIC50 (converted)
T2 construct: purchased 2B scientific
T2 sequence (O60259 33-260): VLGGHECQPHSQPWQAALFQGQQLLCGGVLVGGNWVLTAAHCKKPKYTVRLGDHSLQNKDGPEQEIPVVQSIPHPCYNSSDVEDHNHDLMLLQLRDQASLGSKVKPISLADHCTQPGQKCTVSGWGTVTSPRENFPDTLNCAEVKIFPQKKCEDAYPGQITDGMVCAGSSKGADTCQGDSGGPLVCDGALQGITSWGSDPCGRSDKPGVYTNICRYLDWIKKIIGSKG
Description: (§1) Enzyme inhibition assays: All chemicals were purchased from Sigma Aldrich (Gillingham, UK) unless otherwise stated. All experiments were conducted in 384 well black, low volume microplates (Greiner 784076) with a final volume of 20 μL and compounds were dispensed into assay plates using an ECHO 550 acoustic dispenser (Labcyte). KLK6 (5 nM) (prepared as in ref. 21) was incubated with test compounds for 30 min at room temperature in assay buffer (50 mM Tris, pH 7.5, 150 mM NaCl, 1 mM EDTA, 0.05 % tween 20, 0.1 % bovine serum albumin (BSA), 1 mM dithiothreitol (DTT)) before the reaction was started by addition of 20 μM Boc‐Phe‐Ser‐Arg‐AMC substrate (Bachem). Fluorescence intensity was read at ex/em 355/460 following incubation for 2 h in the dark at room temperature.
(§2) Assays using KLK7 and KLK8 (2B scientific) were conducted in the same manner as for KLK6 with the following exceptions. Both KLK7 and KLK8 required activation before assaying. KLK7 was combined with an equal volume of 20 μg/ml thermolysin (R&D systems) in activation buffer (50 mM Tris, pH 7.5, 10 mM CaCl2, 150 mM NaCl and 0.05 % Brij‐L23) and incubated at 37 °C for 2 h, the reaction was stopped with the addition of 100 mM EDTA in stop solution (50 mM Tris, 150 mM NaCl, pH 8.5). KLK8 was combined with an equal volume of 0.4 mU/mL lysyl endopeptidase (Alpha laboratories) in activation buffer (50 mM Tris, pH 8.0) and incubated at 37 °C for 30 min. Activated KLK7 (40 nM) and KLK8 (25 nM) were assayed with 40 μM Mca‐RPKPVE‐Nval‐WRK(Dnp)‐NH2 fluorogenic MMP substrate (R&D systems) and 25 μM Boc‐V‐P‐R‐AMC substrate (R&D systems), respectively.

[3] = biological target: KLK6 (Homo sapiens, UniProt Q92876); assay: KLK6 enzymatic inhibition assay (fluorogenic Boc-Phe-Ser-Arg-AMC substrate); design: made in house; settings: for IC50: read-out: KLK6 pIC50 (converted); for LipE: LipE=pIC50 – logP (KLK6 pIC50, ALogP)
Description: Using our previously published KLK6 assay format,21 we performed a HTS with the European Lead Factory (ELF),22 and tested ∼350,000 substances at 10 μM for their ability to reduce KLK6‐catalyzed hydrolysis of the fluorogenic Boc‐Phe‐Ser‐Arg‐AMC peptide.
High Throughput Screen: The European Lead Factory library of ∼350,000 compounds was used for high throughput screening at the Pivot Park Screening Center facilities in Oss, The Netherlands. […] For SPR, Biacore T200 was used and KLK6 was immobilized onto a CM5 chip. […] An 8 point 1 in 3 dilution series of 1 (50 μM to 0.02 μM) was also applied at the beginning and end of each screening day.
Enzyme inhibition assays: All chemicals were purchased from Sigma Aldrich (Gillingham, UK) unless otherwise stated.

[4] = biological target: KLK4 (Homo sapiens, UniProt Q9Y5K2); assay: KLK4 inhibition (selectivity); settings: read-out: KLK4 pIC50 (converted)
KLK4, sequence (Q9Y5K2 31-254, species assumed): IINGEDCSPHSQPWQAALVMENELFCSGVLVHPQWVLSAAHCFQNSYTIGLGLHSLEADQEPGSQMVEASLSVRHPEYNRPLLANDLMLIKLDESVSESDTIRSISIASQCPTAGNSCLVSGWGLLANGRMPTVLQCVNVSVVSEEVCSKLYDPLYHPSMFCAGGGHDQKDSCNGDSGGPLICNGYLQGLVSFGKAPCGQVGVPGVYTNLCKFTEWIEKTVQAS
Text: Table 3 Activity of synthesized inhibitors against KLK6 and related proteases. | column: KLK4^a

[5] = biological target: T3, Human Factor Xa (Homo sapiens, UniProt P00742); assay: Factor Xa enzyme inhibition assay; settings: read-out: Factor Xa pIC50 (converted)
T3 construct: Human Factor Xa was purchased from Enzo Life Sciences; purchased Enzo Life Sciences
T3 sequence (P00742 235-488 limits assumed): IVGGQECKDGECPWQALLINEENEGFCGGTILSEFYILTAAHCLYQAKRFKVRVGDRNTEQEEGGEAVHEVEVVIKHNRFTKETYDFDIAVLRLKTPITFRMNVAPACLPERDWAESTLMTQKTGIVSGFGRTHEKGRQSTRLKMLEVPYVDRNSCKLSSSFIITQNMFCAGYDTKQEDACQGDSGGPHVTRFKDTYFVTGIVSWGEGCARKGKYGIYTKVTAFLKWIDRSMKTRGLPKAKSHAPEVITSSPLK
T3 sequence (P00742 41-179 partner limits assumed): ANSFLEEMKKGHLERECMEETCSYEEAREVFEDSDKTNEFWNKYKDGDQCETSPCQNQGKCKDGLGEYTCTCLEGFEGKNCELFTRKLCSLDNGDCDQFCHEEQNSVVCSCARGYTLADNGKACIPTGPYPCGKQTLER
Description: (§3) Human thrombin was purchased from Biopur. Human trypsin was purchased from Polymun Scientific. Human Factor Xa was purchased from Enzo Life Sciences. Thrombin (20 nM), trypsin (0.000015 %) or Factor Xa (10 nM) were assayed in a similar manner to the KLKs but were incubated with compound for 20 min at room temperature in assay buffer (50 mM Tris HCl, pH 7.6, 100 mM NaCl, 1 mg/ml CHAPS, 0.05 % bovine serum albumin (BSA), 1 mM dithiothreitol (DTT)) before the addition of 5 μM, 2.5 μM or 1.5 μM Rhodamine 110 substrate (Cambridge bioscience ltd) respectively. Fluorescence intensity was then read at ex/em 485/535 following incubation for 1 h at room temperature (thrombin and factor Xa) or 20 min (trypsin).

[6] = biological target: T4, KLK7 (Homo sapiens, UniProt P49862); assay: KLK7 enzyme inhibition assay; settings: read-out: KLK7 pIC50 (converted)
T4 construct: purchased 2B scientific
T4 sequence (P49862 30-253, species assumed): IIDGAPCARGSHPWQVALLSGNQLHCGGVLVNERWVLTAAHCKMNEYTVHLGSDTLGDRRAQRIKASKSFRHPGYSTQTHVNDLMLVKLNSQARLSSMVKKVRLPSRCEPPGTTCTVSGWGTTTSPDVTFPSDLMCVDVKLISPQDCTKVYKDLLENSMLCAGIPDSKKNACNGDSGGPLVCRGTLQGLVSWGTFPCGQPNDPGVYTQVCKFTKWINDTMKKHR
Description: as §1, §2

[7] = biological target: T5, Human thrombin (Homo sapiens, UniProt P00734); assay: Thrombin enzyme inhibition assay; settings: read-out: Thrombin pIC50 (converted)
T5 construct: Human thrombin was purchased from Biopur; purchased Biopur
Description: as §3

[8] = synthesized inhibitors (Table 3), 8.6 = assay limit
[9] = resynthesized stereoisomers, enzymatic inhibition assay (Table 2)

SMILES | IC50 [1] | IC50 [2] | IC50 [3, 8] | IC50 [3, 9] | IC50 [4] | KLK6 potency loss ([3]; relative to 32) | IC50 [5] | IC50 [6] | IC50 [7] | KLK6 potency loss ([3]; relative to 5) | LipE [3] | selectivity against trypsin ([1]; KLK6 over trypsin) | KLK6 potency loss ([3]; relative to 29) | gain in potency for KLK6 ([3]; relative to 5)
CC[C@H](NC(=O)[C@H]1CN(c2ccc(C(=N)N)cc2)C(=O)O1)c1ccnc2ccccc12 [Compound 33, (5R)‐3‐(4‐carbamimidoylphenyl)‐2‐oxo‐N‐((1S)‐1‐(quinolin‐4‐yl)propyl)oxazolidine‐5‐carboxamide] | 6.31 µM | > 20 µM | 0.126 µM | – | – | – | – | – | – | – | – | – | – | –
CC[C@H](NC(=O)[C@H]1CN(c2ccc(CN)cc2)C(=O)O1)c1cccc2ccccc12 [Compound 35, (5R)‐3‐(4‐(aminomethyl)phenyl)‐N‐[(1S)‐1‐(naphthalen‐1‐yl)propyl]‐2‐oxooxazolidine‐5‐carboxamide] | 5.01 µM | 10 µM | 0.316 µM | – | 5.01 µM | ~100 fold | – | – | – | – | – | – | – | –
C[C@H](NC(=O)[C@H]1CN(c2ccc(C(=N)N)cc2)C(=O)O1)c1cccc2ccccc12 [Compound 29, (5R)‐3‐(4‐carbamimidoylphenyl)‐N‐((S)‐1‐(naphthalen‐1‐yl)ethyl)‐2‐oxooxazolidine‐5‐carboxamide] | 0.794 µM | 1 µM | 0.0126 µM | – | 0.631 µM | – | > 20 µM | > 20 µM | > 20 µM | – | – | – | – | –
COc1cccc([C@H](C)NC[C@H]2CN(c3ccc(C(=N)N)cc3)C(=O)O2)c1 [Compound 49, 4‐((S)‐5‐((((S)‐1‐(3‐methoxyphenyl)ethyl)amino)methyl)‐2‐oxooxazolidin‐3‐yl)benzimidamide] | > 20 µM | > 20 µM | 10 µM | – | – | – | > 20 µM | > 20 µM | > 20 µM | 40 fold | – | – | – | –
CC(C)(NC(=O)[C@H]1CN(c2ccc(C(=N)N)cc2)C(=O)O1)C(=O)Nc1ccccc1 [Compound 28, (5R)‐3‐(4‐carbamimidoylphenyl)‐N‐(2‐methyl‐1‐oxo‐1‐(phenylamino)propan‐2‐yl)‐2‐oxooxazolidine‐5‐carboxamide] | 6.31 µM | – | 0.0316 µM | – | 1.58 µM | – | – | – | – | – | 6.20 | – | – | –
COc1cccc(C(C)NC(=O)C2CC(=O)N(c3ccc(C(=N)N)cc3)C2)c1 [Compound 43, (5R)‐1‐(4‐carbamimidoylphenyl)‐N‐[(1S)‐1‐(3‐methoxyphenyl)ethyl]‐5‐oxopyrrolidine‐3‐carboxamide] | 5.01 µM | > 20 µM | 0.316 µM | – | 7.94 µM | – | > 20 µM | > 20 µM | > 20 µM | – | – | – | – | –
COc1cccc([C@H](C)NC(=O)[C@@H]2CCN(c3ccc(C(=N)N)cc3)C2)c1 [Compound 47, (3R)‐1‐(4‐carbamimidoylphenyl)‐N‐[(1S)‐1‐(3‐methoxyphenyl)ethyl]pyrrolidine‐3‐carboxamide] | 5.01 µM | 7.94 µM | 0.794 µM | – | 1.26 µM | – | > 20 µM | > 20 µM | > 20 µM | – | – | – | – | –
CC[C@H](NC(=O)[C@H]1CN(c2ccc(C(=N)N)nc2)C(=O)O1)c1cccc2ccccc12 [Compound 34, (5R)‐3‐(6‐carbamimidoylpyridin‐3‐yl)‐N‐((1S)‐1‐(naphthalen‐1‐yl)propyl)‐2‐oxooxazolidine‐5‐carboxamide] | 0.631 µM | 0.501 µM | 0.00501 µM | – | – | – | – | – | – | – | 5.76 | > 100 fold | – | –
CC(C)(NC(=O)[C@H]1CN(c2ccc(C(=N)N)cc2)C(=O)O1)c1cccc2ccccc12 [Compound 31, (5R)‐3‐(4‐carbamimidoylphenyl)‐N‐(2‐(naphthalen‐1‐yl)propan‐2‐yl)‐2‐oxooxazolidine‐5‐carboxamide] | 5.01 µM | > 20 µM | 0.0794 µM | – | – | – | – | – | – | – | – | – | ~6 fold | –

The next lines start with the values.

IC50 [1] | IC50 [2] | IC50 [3, 8] | IC50 [3, 9] | IC50 [4] | KLK6 potency loss ([3]; relative to 32) | IC50 [5] | IC50 [6] | IC50 [7] | KLK6 potency loss ([3]; relative to 5) | LipE [3] | selectivity against trypsin ([1]; KLK6 over trypsin) | KLK6 potency loss ([3]; relative to 29) | gain in potency for KLK6 ([3]; relative to 5) | SMILES
– | – | – | > 20 µM | – | – | – | – | – | – | – | – | – | – | COc1cccc([C@H](C)NC(=O)[C@@H]2CN(c3ccc(C(=N)N)cc3)C(=O)O2)c1 [Compound 10]
0.251 µM | 0.794 µM | 0.0316 µM | – | – | – | > 20 µM | > 20 µM | > 20 µM | – | – | – | – | – | COc1cccc([C@@H](NC(=O)[C@H]2CN(c3ccc(C(=N)N)cc3)C(=O)O2)C2CC2)c1 [Compound 25, (5R)‐3‐(4‐carbamimidoylphenyl)‐N‐((1S)‐cyclopropyl(3‐methoxyphenyl)methyl)‐2‐oxooxazolidine‐5‐carboxamide]
10 µM | > 20 µM | 0.158 µM | – | – | – | – | – | – | – | – | – | – | – | COc1cccc(C(C)(C)NC(=O)[C@H]2CN(c3ccc(C(=N)N)cc3)C(=O)O2)c1 [Compound 26, (5R)‐3‐(4‐carbamimidoylphenyl)‐N‐(2‐(3‐methoxyphenyl)propan‐2‐yl)‐2‐oxooxazolidine‐5‐carboxamide]
> 20 µM | > 20 µM | – | > 20 µM | – | – | > 20 µM | > 20 µM | > 20 µM | – | – | – | – | – | COc1cccc([C@@H](C)NC(=O)[C@H]2CN(c3ccc(C(=N)N)cc3)C(=O)O2)c1 [Compound 11, (5R)‐3‐(4‐carbamimidoylphenyl)‐N‐[(R)‐1‐(3‐methoxyphenyl)ethyl]‐2‐oxooxazolidine‐5‐carboxamide]
> 20 µM | > 20 µM | 3.98 µM | – | – | – | > 20 µM | > 20 µM | > 20 µM | – | – | – | – | – | COc1cccc(CNC(=O)[C@H]2CN(c3ccc(C(=N)N)cc3)C(=O)O2)c1 [Compound 23, (5R)‐3‐(4‐carbamimidoylphenyl)‐N‐(3‐methoxybenzyl)‐2‐oxooxazolidine‐5‐carboxamide]
> 20 µM | > 20 µM | 0.794 µM | – | 39.8 µM | – | > 20 µM | > 20 µM | > 20 µM | – | – | – | – | – | CC(C)(NC(=O)[C@H]1CN(c2ccc(C(=N)N)cc2)C(=O)O1)c1ccccc1 [Compound 27, (5R)‐3‐(4‐carbamimidoylphenyl)‐2‐oxo‐N‐(2‐phenylpropan‐2‐yl)oxazolidine‐5‐carboxamide]
1.58 µM | 5.01 µM | 0.0316 µM | – | 2.51 µM | – | > 20 µM | > 20 µM | > 20 µM | – | 5.16 | – | – | ~10 fold | CC[C@H](NC(=O)[C@H]1CN(c2ccc(C(=N)N)cc2)C(=O)O1)c1cccc(OC)c1 [Compound 24, (5R)‐3‐(4‐carbamimidoylphenyl)‐N‐[(1S)‐1‐(3‐methoxyphenyl)propyl]‐2‐oxo‐oxazolidine‐5‐carboxamide]

— publication PMC7004151, “Synthesis and Structure‐Activity Relationships of N‐(4‐Benzamidino)‐Oxazolidinones: Potent and Selective Inhibitors of Kallikrein‐Related Peptidase 6” (Chemmedchem, 2019)
